Assay results reported in PubChem BioAssay (NCI).
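Assay format: 96-well plates, 48-hour exposure. GI50 marks 50% less growth. At the TGI there is no net growth.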

Tests used:
Assay in all cases: inhibition of tumour cell growth, NCI panel, 48 h
[1] = system: MDA-MB-435
[2] = system: NCI-H226 lung
[3] = system: OVCAR-8 ovarian
[4] = system: TK-10 renal
[5] = system: HL-60(TB) leukemia
[6] = system: UO-31 renal
[7] = system: U251 CNS
[8] = system: RXF 393 renal
[9] = system: UACC-257 melanoma
[10] = system: NCI-H522 lung
[11] = system: EKVX NSCLC
[12] = system: IGROV1 ovarian
[13] = system: SK-OV-3 ovarian
[14] = system: OVCAR-5 ovarian
[15] = system: SK-MEL-2 melanoma
[16] = system: MCF7 breast
[17] = system: NCI-H23 lung
[18] = system: M14 melanoma
[19] = system: SK-MEL-5 melanoma
[20] = system: DU-145 prostate
[21] = system: MALME-3M melanoma
[22] = system: HCT-15 colon
[23] = system: HOP-62 NSCLC
[24] = system: CCRF-CEM leukemia
[25] = system: ACHN renal
[26] = system: RPMI-8226 leukemia
[27] = system: A549 NSCLC
[28] = system: T-47D breast
[29] = system: OVCAR-4 ovarian
[30] = system: COLO 205 colon
[31] = system: HCT-116 colon
[32] = system: HCC-2998 colon
[33] = system: BT-549 breast
[34] = system: SW-620 colon
[35] = system: SNB-75 CNS
[36] = system: MDA-MB-231 breast
[37] = system: PC-3 prostate
[38] = system: SK-MEL-28 melanoma
[39] = system: HS 578T breast
[40] = system: SF-268 CNS
[41] = system: A498 renal
[42] = system: UACC-62 melanoma
[43] = system: SF-295 CNS
[44] = system: NCI-H460 lung
[45] = system: HT29 colon
[46] = system: NCI/ADR-RES ovarian
[47] = system: LOX IMVI melanoma
[48] = system: SF-539 CNS
[49] = system: SNB-19 CNS
[50] = system: KM12 colon
[51] = system: OVCAR-3 ovarian
[52] = system: 786-0 renal
[53] = system: SN12C renal
[54] = system: HOP-92 NSCLC

## CN(C)CCCn1c2c(c3ccc(-c4ccn[nH]4)cc3c1=O)C(=O)c1ccccc1-2
[1]
  GI50: 10.3 µM
  TGI: 23.7 µM
[2]
  GI50: 273 nM
  TGI: 1530 nM
[3]
  GI50: 163 nM
  TGI: 2270 nM
[4]
  GI50: 2750 nM
  TGI: 18.8 µM
[5]
  GI50: 34.6 nM
  TGI: 771 nM
[6]
  GI50: 301 nM
  TGI: 1920 nM
[7]
  GI50: 183 nM
  TGI: 1570 nM
[8]
  GI50: 1660 nM
  TGI: 9.57 µM
[9]
  GI50: 12.3 µM
  TGI: 29.1 µM
[10]
  GI50: 836 nM
  TGI: 18 µM
[11]
  GI50: 2910 nM
  TGI: 20.6 µM
[12]
  GI50: 583 nM
  TGI: 2510 nM
[13]
  GI50: 1210 nM
  TGI: 11.3 µM
[14]
  GI50: 1510 nM
  TGI: 5.47 µM
[15]
  GI50: 18.2 µM
  TGI: 35.8 µM
[16]
  GI50: 37.8 nM
  TGI: 1540 nM
[17]
  GI50: 243 nM
  TGI: 1830 nM
[18]
  GI50: 1650 nM
  TGI: 13.9 µM
[19]
  GI50: 481 nM
  TGI: 16.4 µM
[20]
  GI50: 197 nM
  TGI: 10.5 µM
[21]
  GI50: 931 nM
  TGI: 2470 nM
[22]
  GI50: 91.5 nM
  TGI: 1480 nM
[23]
  GI50: 181 nM
  TGI: 11.6 µM
[24]
  GI50: 29.1 nM
  TGI: 1040 nM
[25]
  GI50: 94.8 nM
  TGI: 1930 nM
[26]
  GI50: 115 nM
  TGI: 1390 nM
[27]
  GI50: 57.8 nM
  TGI: 1420 nM
[28]
  GI50: 627 nM
  TGI: 20.9 µM
[29]
  GI50: 1450 nM
  TGI: 4.06 µM
[30]
  GI50: 4.92 µM
  TGI: 23.7 µM
[31]
  GI50: 391 nM
  TGI: 2230 nM
[32]
  GI50: 10 µM
  TGI: 24 µM
[33]
  GI50: 3.1 µM
  TGI: 21.1 µM
[34]
  GI50: 204 nM
  TGI: 2170 nM
[35]
  GI50: 1390 nM
  TGI: 17.3 µM
[36]
  GI50: 1270 nM
  TGI: 2840 nM
[37]
  GI50: 1210 nM
  TGI: 2720 nM
[38]
  GI50: 2010 nM
  TGI: 5.65 µM
[39]
  GI50: 4.9 µM
  TGI: 27.1 µM
[40]
  GI50: 1850 nM
  TGI: 15 µM
[41]
  GI50: 10.6 µM
  TGI: 30.9 µM
[42]
  GI50: 718 nM
  TGI: 18.9 µM
[43]
  GI50: 354 nM
  TGI: 13.6 µM
[44]
  GI50: 36.3 nM
  TGI: 1550 nM
[45]
  GI50: 344 nM
  TGI: 1990 nM
[46]
  GI50: 1480 nM
  TGI: 4.76 µM
[47]
  GI50: 104 nM
  TGI: 1460 nM
[48]
  GI50: 1040 nM
  TGI: 6.29 µM
[49]
  GI50: 332 nM
  TGI: 1820 nM
[50]
  GI50: 527 nM
  TGI: 2080 nM
[51]
  GI50: 6.09 µM
  TGI: 21.5 µM
[52]
  GI50: 218 nM
  TGI: 1820 nM
[53]
  GI50: 249 nM
  TGI: 10 µM
[54]
  GI50: 129 nM
  TGI: 10.9 µM
